According to patent publication US4395400A, “Nonapeptide, a process for its preparation, an agent containing it and its use” (Hoechst Aktiengesellschaft, priority 1980, dated 1983):

Key:
[1] = test system: gonadoliberin biological action; settings: D-aminoacid in position 6 with tert.-butyl type protective group; cited from earlier work
[2] = solubility in aqueous buffer solutions; type: physicochemical
Source text: This makes the compound suitable for intranasal administration, for which, as shown by experience, solubility can be the limiting factor.

[3] = absorption from the gastro-intestinal tract; type: in vivo; settings: humans
Experimental: The preferred method of administration in humans is intranasal administration, since absorption of the compound from the gastro-intestinal tract is only slight and parenteral administration is inappropriate for the patient. About 0.1 ml of a buffer solution, in which the necessary quantity of the active compound is dissolved, is sprayed into the nose via a spray jet, by means of a dosing atomizer.

## CC(C)(C)OC[C@@H](N)C(=O)O [O-tert.-butyl-D-serine]
[1]
  biological action of position-6 substituted gonadoliberin derivative: strongest biological action

## CCNC(=O)[C@@H]1CCCN1C(=O)[C@H](CCCNC(=N)N)NC(=O)[C@H](CC(C)C)NC(=O)[C@@H](CCCC(=O)OC(C)(C)C)NC(=O)[C@H](Cc1ccc(O)cc1)NC(=O)[C@H](CO)NC(=O)[C@H](Cc1c[nH]c2ccccc12)NC(=O)[C@H](Cc1c[nH]cn1)NC(=O)[C@@H]1CCC(=O)N1 [nonapeptide]
[2]; aqueous buffer solutions
  solubility in aqueous buffer solutions: good solubility
[2]; versus analogs of comparable effectiveness, particularly the D-Trp^6 or D-His(Bzl)^6 analogs
  solubility compared with other gonadoliberin analogs: appreciably greater
[3]
  absorption from the gastro-intestinal tract: only slight
